Assays:
[1] = Visual and microscopic inspection of the eye after intra-vitreous injection; format: in vivo, Sprague-Dawley albino rats; conditions: compared with PBS buffer (left eye)
Protocol: WO2011/038117. Initial in vivo testing on a rat model (Sprague-Dawley albino rats) was performed to determine the biocompatibility of the empty polymer particles without encapsulated cargo. This involved intra-vitreous injection of different concentrations of the light-degradable particles (“NP low” and “NP high” test categories in FIG. 2A) as well as different concentrations of nanoparticles composed of a known biocompatible material (PLGA). In each animal, the test material was injected into the right eye while a phosphate buffered solution (PBS) was injected into the left eye as a negative control. Additionally, animals were administered nanoparticle solutions that had previously been irradiated with UV light (˜350 nm) to determine any deleterious effects of the degradation byproducts (“NP low+UV” and “NP high+UV”.) Lipopolysaccharide (LPS) was injected in another group as a positive control as it is known to cause inflammation. […] FIG. 2A illustrates the intra-ocular pressure (IOP) data for these tests, with each group of bars, with the bars proceeding from left to right in the figure, corresponding to pre-operative IOP, drug (nanoparticle) day 1, PBS at day 1 after injection, drug (nanoparticle) day 4 after injection, PBS day 4, drug day 5, PBS day 5 etc. up to day 7 after injection. […] Second, the intra-ocular pressure was measured daily. […]

Raw 264.7 cells = test: Light-triggered release of FDA from nanoparticles, cell fluorescence (imaging, plate reader); format: cell-based; conditions: UV irradiation, free FDA
Protocol: The dye selected for these studies was Fluorescein Diacetate (FDA), which is an ester of fluorescein. […] Nanoparticles containing FDA were formulated through an inverse emulsion/solvent evaporation process. […] The resulting solution was added to a larger volume of 1% solution of polyvinyl alcohol (PVA) and probe sonicated to form the emulsion. The organic solvent was then evaporated under vacuum, and PVA removed by tangential flow ultrafiltration. The resulting solution was then freeze-dried with mannitol as cryoprotectant. The resulting particles were characterized by dynamic light scattering (DLS) and scanning electron microscopy (SEM). The encapsulation efficiency was evaluated by liquid-liquid extraction of FDA from particles and fluorescence measurements. […] As a more quantitative assay, we measured the amount of fluorescence of the cells using a plate reader (same cell count in each well). […] FIG. 4 is a bar graph showing the measured fluorescence for irradiated and non-irradiated Raw 264.7 cells. The cells in irradiated wells show higher fluorescence due to triggered release of payload (dark bars) as compared to cells in non-irradiated wells (light bars). […] We found an 18-fold increase in fluorescence upon irradiation as compared to the non-irradiated control in Raw 264.7 macrophage cell line, as well as a 3-fold increase upon irradiation in retinal cell line.

Compound | visual and microscopic inspection of the eye [1] | bleaching of FDA by irradiation (Raw 264.7 cells)
Lipopolysaccharide [LPS] | caused tearing | –
CC(=O)Oc1ccc2c(c1)Oc1cc(OC(C)=O)ccc1C21OC(=O)c2ccccc21 [FDA, Fluorescein Diacetate] | – | does not cause significant bleaching

From patent publication US20150119792A1, “LIGHT DEGRADABLE DRUG DELIVERY SYSTEM FOR OCULAR THERAPY” (priority 2012, published 2015)
